From the supplement of paper PMC11061612

Key:
[1] = compound: C1CC(C1)(C(=O)[O-])C(=O)[O-].N.N.[Pt+2] [Carboplatin]; settings: max 10 µM
Method in brief: (§1)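 Cancer cell lines were seeded in 1536-well plates in 7.5 μl DMEM/F12 or RPMI with 10% FBS, held 24 hours at 37°C and 5% CO2, then dosed for 72 hours (final DMSO typically 0.2%). Viability was read by CellTiter-Glo 2.0 luminescence and scaled between blank-well and DMSO-well means. The single-agent IC50 comes from dose responses fitted to a two-parameter logistic curve with a non-linear mixed effects model.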

[2] = compound: C1CN(CCC1(C(=O)N[C@@H](CCO)C2=CC=C(C=C2)Cl)N)C3=NC=NC4=C3C=CN4 [AZD5363]; settings: max 10 µM
Method in brief: as §1

[3] = compound: C=CCn1c(=O)c2cnc(Nc3ccc(N4CCN(C)CC4)cc3)nc2n1-c1cccc(C(C)(C)O)n1 [AZD1775]; settings: max 3 µM
Method in brief: as §1

[4] = compound: CC(=O)Nc1cccc(-n2c(=O)n(C3CC3)c(=O)c3c(Nc4ccc(I)cc4F)n(C)c(=O)c(C)c32)c1 [Trametinib]; settings: max 1 µM
Method in brief: as §1

[5] = compound: CC(=O)O[C@H]1C(=O)[C@@]2(C)[C@H]([C@H](OC(=O)c3ccccc3)[C@]3(O)C[C@H](OC(=O)[C@H](O)[C@@H](NC(=O)c4ccccc4)c4ccccc4)C(C)=C1C3(C)C)[C@]1(OC(C)=O)CO[C@@H]1C[C@@H]2O [Paclitaxel]; settings: max 3 µM
Method in brief: as §1

[6] = compound: CC(=O)c1c(C)c2cnc(Nc3ccc(N4CCNCC4)cn3)nc2n(C2CCCC2)c1=O [Palbociclib]; settings: max 10 µM
Method in brief: as §1

[7] = compound: CC(C)n1c(=O)n(C)c2cnc3cc(F)c(-c4ccc(OCCCN5CCCCC5)nc4)cc3c21 [AZD1390]; settings: max 0.3 µM
Method in brief: as §1

[8] = compound: CC1(C)CCC(CN2CCN(c3ccc(C(=O)NS(=O)(=O)c4ccc(NCC5CCOCC5)c([N+](=O)[O-])c4)c(Oc4cnc5[nH]ccc5c4)c3)CC2)=C(c2ccc(Cl)cc2)C1 [Venetoclax]; settings: max 1 µM
Method in brief: as §1

[9] = compound: CC1=C(C(=CC=C1)Cl)NC(=O)C2=CN=C(S2)NC3=CC(=NC(=N3)C)N4CCN(CC4)CCO [Dasatinib]; settings: max 2 µM
Method in brief: as §1

[10] = compound: CC1=CN2[C@@H](C1)C=NC3=CC(=C(C=C3C2=O)OC)OCCCCCOC4=C(C=C5C(=C4)N=C[C@@H]6CC(=CN6C5=O)C)OC [SG3199]; settings: max 0.001 µM
Method in brief: as §1

[11] = compound: CCN(CCO)CCCOc1ccc2c(Nc3cc(CC(=O)Nc4cccc(F)c4)[nH]n3)ncnc2c1 [AZD2811]; settings: max 1 µM
Method in brief: as §1

[12] = compound: CCc1c2c(nc3ccc(O)cc13)-c1cc3c(c(=O)n1C2)COC(=O)[C@]3(O)CC [SN-38]; settings: max 0.3 µM
Method in brief: as §1

[13] = compound: CN(C)CCCOc1ccc(-c2ccc3ncc4c(c3c2)n(C2CCOCC2)c(=O)n4C)cn1 [AZD0156]; settings: max 3 µM
Method in brief: as §1

[14] = compound: CN(CC[C@H](CSC1=CC=CC=C1)NC2=C(C=C(C=C2)S(=O)(=O)NC(=O)C3=CC=C(C=C3)N4CCC(CC4)[C@H](C5=CC=CC=C5C6=CC=C(C=C6)Cl)O)S(=O)(=O)C(F)(F)F)CCO [AZD4320]; settings: max 1 µM
Method in brief: as §1

[15] = compound: COc1cc(Nc2ncc3c(n2)-c2ccc(Cl)cc2C(c2c(F)cccc2OC)=NC3)ccc1C(=O)O [Alisertib]; settings: max 10 µM
Method in brief: as §1

[16] = compound: COc1cc([C@@H]2c3cc4c(cc3[C@@H](O[C@@H]3O[C@@H]5CO[C@@H](C)O[C@H]5[C@H](O)[C@H]3O)[C@H]3COC(=O)[C@H]23)OCO4)cc(OC)c1O [Etoposide]; settings: max 10 µM
Method in brief: as §1

[17] = compound: COc1cc2ncnc(Nc3ccc(F)c(Cl)c3)c2cc1OCCCN1CCOCC1 [Gefitinib]; settings: max 10 µM
Method in brief: as §1

[18] = compound: COc1cccc(OCCCN)c1-c1cc(Nc2cnc(C#N)cn2)n[nH]1 [Prexasertib]; settings: max 1 µM
Method in brief: as §1

[19] = compound: COc1cccc2c1C(=O)c1c(O)c3c(c(O)c1C2=O)C[C@@](O)(C(=O)CO)C[C@@H]3O[C@H]1C[C@H](N)[C@H](O)[C@H](C)O1 [Doxorubicin]; settings: max 1 µM
Method in brief: as §1

[20] = compound: COc1nnc2ccc(N3CCC(c4ccc(OCCN5CCN(C)C(=O)[C@H]5C)cc4)CC3)nn12 [AZD5153]; settings: max 1 µM
Method in brief: as §1

[21] = compound: CS(=O)(=O)CCNCc1ccc(-c2ccc3ncnc(Nc4ccc(OCc5cccc(F)c5)c(Cl)c4)c3c2)o1 [Lapatinib]; settings: max 10 µM
Method in brief: as §1

[22] = compound: C[C@@H](Nc1cc(F)cc(F)c1)c1cc(C(=O)N(C)C)cc2c(=O)cc(N3CCOCC3)oc12 [AZD8186]; settings: max 10 µM
Method in brief: as §1

[23] = compound: C[C@@H](Oc1cc(-c2cnn(C3CCNCC3)c2)cnc1N)c1c(Cl)ccc(F)c1Cl [Crizotinib]; settings: max 10 µM
Method in brief: as §1

[24] = compound: C[C@@H](c1ccc2nccn2c1)n1nnc2ncc(-c3cnn(C)c3)nc21 [Savolitinib]; settings: max 1 µM
Method in brief: as §1

[25] = compound: C[C@@H]1COCCN1C2=NC(=NC(=C2)C3(CC3)[S@](=N)(=O)C)C4=C5C=CNC5=NC=C4 [AZD6738]; settings: max 10 µM
Method in brief: as §1

[26] = compound: Cc1c2c(nn1C)CSCc1cc(n(C)n1)CSc1cc(c3ccccc3c1)OCCCc1c(C(=O)O)n(C)c3c-2c(Cl)ccc13 [AZD5991]; settings: max 1 µM
Method in brief: as §1

[27] = compound: Cc1cc2ncnn2cc1Nc1ncc2c(n1)n(C1CCOCC1)c(=O)n2C [AZD7648]; settings: max 10 µM
Method in brief: as §1

[28] = compound: Cc1nc(-c2cn3c(n2)-c2ccc(-c4cnn(C(C)(C)C(N)=O)c4)cc2OCC3)n(C(C)C)n1 [Taselisib]; settings: max 10 µM
Method in brief: as §1

[29] = compound: Cn1cnc2c(F)c(Nc3ccc(Br)cc3Cl)c(C(=O)NOCCO)cc21 [Selumetinib]; settings: max 10 µM
Method in brief: as §1

[30] = compound: N#Cc1cnc(Nc2cc(NC[C@H]3CNCCO3)c(C(F)(F)F)cn2)cn1 [SRA737]; settings: max 10 µM
Method in brief: as §1

[31] = compound: NC1(c2ccc(-c3nc4ccn5c(=O)[nH]nc5c4cc3-c3ccccc3)cc2)CCC1 [MK-2206]; settings: max 10 µM
Method in brief: as §1

[32] = compound: Nc1ccn([C@@H]2O[C@H](CO)[C@@H](O)C2(F)F)c(=O)n1 [Gemcitabine]; settings: max 0.3 µM
Method in brief: as §1

[33] = compound: O=C(Nc1ccc2[nH]nc(-c3ccncc3)c2c1)[C@@H]1CCN(CC(=O)N2CCN(c3ccc(-c4ncccn4)cc3)CC2)C1; settings: max 5 µM
Method in brief: as §1

[34] = compound: O=C(c1cc(Cc2n[nH]c(=O)c3ccccc23)ccc1F)N1CCN(C(=O)C2CC2)CC1 [Olaparib]; settings: max 10 µM
Method in brief: as §1

[35] = compound: O=c1[nH]cc(F)c(=O)[nH]1 [5-Fluorouracil]; settings: max 20 µM
Method in brief: as §1

Row | Cell Line | IC50, cell viability 72 h [1] [µM] | IC50, cell viability 72 h [2] [µM] | IC50, cell viability 72 h [3] [µM] | IC50, cell viability 72 h [4] [µM] | IC50, cell viability 72 h [5] [µM] | IC50, cell viability 72 h [6] [µM] | IC50, cell viability 72 h [7] [µM] | IC50, cell viability 72 h [8] [µM] | IC50, cell viability 72 h [9] [µM] | IC50, cell viability 72 h [10] [µM] | IC50, cell viability 72 h [11] [µM] | IC50, cell viability 72 h [12] [µM] | IC50, cell viability 72 h [13] [µM] | IC50, cell viability 72 h [14] [µM] | IC50, cell viability 72 h [15] [µM] | IC50, cell viability 72 h [16] [µM] | IC50, cell viability 72 h [17] [µM] | IC50, cell viability 72 h [18] [µM] | IC50, cell viability 72 h [19] [µM] | IC50, cell viability 72 h [20] [µM] | IC50, cell viability 72 h [21] [µM] | IC50, cell viability 72 h [22] [µM] | IC50, cell viability 72 h [23] [µM] | IC50, cell viability 72 h [24] [µM] | IC50, cell viability 72 h [25] [µM] | IC50, cell viability 72 h [26] [µM] | IC50, cell viability 72 h [27] [µM] | IC50, cell viability 72 h [28] [µM] | IC50, cell viability 72 h [29] [µM] | IC50, cell viability 72 h [30] [µM] | IC50, cell viability 72 h [31] [µM] | IC50, cell viability 72 h [32] [µM] | IC50, cell viability 72 h [33] [µM] | IC50, cell viability 72 h [34] [µM] | IC50, cell viability 72 h [35] [µM]
1 | SK-N-AS (Neuroblastoma) | > 10 | > 10 | 1 | 0.126 | 0.299 | > 10 | > 0.3 | > 1 | > 2 | > 0.001 | > 1 | 0.0812 | > 3 | > 1 | 0.78 | > 10 | > 10 | 0.01 | > 1 | > 1 | > 10 | > 10 | > 10 | > 1 | 2.94 | > 1 | > 10 | > 10 | > 10 | 8.03 | > 10 | 0.232 | > 5 | > 10 | > 20
2 | SKN (Other Solid Carcinomas) | > 10 | 5.64 | > 3 | > 1 | 0.0953 | > 10 | > 0.3 | > 1 | 0.179 | > 0.001 | > 1 | > 0.3 | > 3 | > 1 | > 10 | > 10 | > 10 | > 1 | > 1 | 0.446 | > 10 | 1.84 | > 10 | > 1 | > 10 | > 1 | > 10 | 2.87 | > 10 | > 10 | > 10 | > 0.3 | > 5 | > 10 | > 20
